The values that follow come from US11970479B2, “3-(1H-pyrazol-4-yl)pyridine allosteric modulators of the M4 muscarinic acetylcholine receptor” (Merck Sharp & Dohme LLC, priority 2018, dated 2024).

In this assay the target is T1, human M4 muscarinic acetylcholine receptor (Homo sapiens, UniProt P08173).
T1 construct: expressed in transfected cells
T1 sequence (P08173 1-479): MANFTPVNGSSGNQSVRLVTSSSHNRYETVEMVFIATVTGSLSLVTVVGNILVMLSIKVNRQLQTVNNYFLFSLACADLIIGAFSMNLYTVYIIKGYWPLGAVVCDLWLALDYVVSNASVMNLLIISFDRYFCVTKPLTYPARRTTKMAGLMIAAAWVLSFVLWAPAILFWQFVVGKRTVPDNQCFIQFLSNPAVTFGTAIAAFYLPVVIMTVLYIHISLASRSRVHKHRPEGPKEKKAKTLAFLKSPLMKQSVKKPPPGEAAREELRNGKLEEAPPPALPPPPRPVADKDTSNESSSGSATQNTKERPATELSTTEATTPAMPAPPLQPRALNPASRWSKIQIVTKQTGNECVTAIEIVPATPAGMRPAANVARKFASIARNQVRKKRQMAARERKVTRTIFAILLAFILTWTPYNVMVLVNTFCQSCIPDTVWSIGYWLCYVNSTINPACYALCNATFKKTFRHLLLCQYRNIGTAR
The assay can be described thus: human FLIPR-based M4 PAM assay (CHO-K1 cells with human M4 receptor and Gαqi5, calcium dye fluorescence, EC20 acetylcholine). The assay is classed as cell-based. The conditions noted are these: inflection point (IP) of the dose response curve, human M4 receptor/Gαqi5, acetylcholine at 20% of maximum response, read-out: M4PAM Hu IP. A digest of the protocol:
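CHO-K1 cells stably expressing human M4 and chimeric Gαqi5 were dye-loaded ~1 h at 37° C. Test compound was added with fluorescence recorded 4 min, then acetylcholine at EC20 (sometimes a further EC70 addition) with reading 3.5 min. Value is the inflection point of a 4-parameter logistic fit.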

For the molecule `COc1cc2ccc(-c3nc(C)ccc3-c3cnn(CC(C)(C)C#N)c3)cc2nn1` [Example 84, 3-{4-[2-(3-methoxycinnolin-7-yl)-6-methylpyridin-3-yl]-1H-pyrazol-1-yl}-2,2-dimethylpropanenitrile], the EC50 came to 198 nM.

`COc1cc2ccc(-c3nc(C)ccc3-c3cnn(CCC(C)(C)C#N)c3)cc2nn1` [Example 85, 4-{4-[2-(3-methoxycinnolin-7-yl)-6-methylpyridin-3-yl]-1H-pyrazol-1-yl}-2,2-dimethylbutanenitrile]: the EC50 amounted to 199 nM.

Regarding `COc1cc2ccc(-c3nc(C)ccc3-c3cnn(CC4(F)CCCCC4)c3)cc2nn1` [Example 86, 7-(3-{1-[(1-fluorocyclohexyl)methyl]-1H-pyrazol-4-yl}-6-methylpyridin-2-yl)-3-methoxycinnoline], the EC50 was 69 nM.

In the case of `COc1cc2ccc(-c3nc(C)ccc3-c3cnn(CC4(C)CCOCC4)c3)cc2nn1` [Example 87, 3-methoxy-7-(6-methyl-3-{1-[(4-methyltetrahydro-2H-pyran-4-yl)methyl]-1H-pyrazol-4-yl}pyridin-2-yl)cinnoline], the EC50 is 63 nM.

For the molecule `CC(C)(Cn1cc(-c2ccc(C#N)nc2-c2ccc3cccnc3c2)cn1)C(F)(F)F` [Example 88, 6-quinolin-7-yl-5-[1-(3,3,3-trifluoro-2,2-dimethylpropyl)-1H-pyrazol-4-yl]pyridine-2-carbonitrile], the EC50 amounted to 44 nM.

`CC(C)(C)CCn1cc(-c2ccc(C#N)nc2-c2ccc3cccnc3c2)cn1` [Example 89, 5-[1-(3,3-dimethylbutyl)-1H-pyrazol-4-yl]-6-quinolin-7-ylpyridine-2-carbonitrile]: the EC50 stood at 52 nM.

Take `CC(C)(Cn1cc(-c2ccc(C#N)nc2-c2ccc3cccnc3c2)cn1)C(F)F` [Example 90, 5-[1-(3,3-difluoro-2,2-dimethylpropyl)-1H-pyrazol-4-yl]-6-quinolin-7-ylpyridine-2-carbonitrile]: the EC50 came to 27 nM.

As for `CC(C)(CCn1cc(-c2ccc(C#N)nc2-c2ccc3cccnc3c2)cn1)C(F)(F)F` [Example 91, 6-quinolin-7-yl-5-[1-(4,4,4-trifluoro-3,3-dimethylbutyl)-1H-pyrazol-4-yl]pyridine-2-carbonitrile], the EC50 came out at 190 nM.

With `N#Cc1ccc(-c2cnn(CC(F)(F)C(F)F)c2)c(-c2ccc3cccnc3c2)n1` [Example 92, 6-quinolin-7-yl-5-[1-(2,2,3,3-tetrahydropropyl)-1H-pyrazol-4-yl]pyridine-2-carbonitrile], the EC50 was 131 nM.

`Cc1ccc(-c2cnn(CC3(C)CCC(F)(F)CC3)c2)c(-c2ccc3cccnc3c2)n1` [Example 93, 7-(3-{1-[(4,4-difluoro-1-methylcyclohexyl)methyl]-1H-pyrazol-4-yl}-6-methylpyridin-2-yl)quinoline]: the EC50 is 24 nM.

For `CC1(Cn2cc(-c3cccnc3-c3ccc4cccnc4c3)cn2)CCCCC1` [Example 94, 7-(3-{1-[(1-methylcyclohexyl)methyl]-1H-pyrazol-4-yl}pyridin-2-yl)quinoline], the EC50 was found to be 52 nM.

On to `c1cnc(-c2ccc3cccnc3c2)c(-c2cnn(CCC3CCC3)c2)c1` [Example 95, 7-{3-[1-(2-cyclobutylethyl)-1H-pyrazol-4-yl]pyridin-2-yl}quinoline], for which the EC50 stood at 158 nM.

For `c1cnc(-c2ccc3cccnc3c2)c(-c2cnn(CCC3CC3)c2)c1` [Example 96, 7-{3-[1-(2-cyclopropylethyl)-1H-pyrazol-4-yl]pyridin-2-yl}quinoline], the EC50 worked out at 239 nM.

Consider `CC1(Cn2cc(-c3ccc(C#N)nc3-c3ccc4cccnc4c3)cn2)CC1` [Example 97, 5-{1-[(1-methylcyclopropyl)methyl]-1H-pyrazol-4-yl}-6-quinolin-7-ylpyridine-2-carbonitrile], for which the EC50 is 87 nM.

With `COc1cc2ccc(-c3nc(C)ccc3-c3cnn(CC4CC4(C)C)c3)cc2nn1` (centres unmarked) [Example 100, 7-(3-{1-[(2,2-dimethylcyclopropyl)methyl]-1H-pyrazol-4-yl}-6-methylpyridin-2-yl)-3-methoxycinnoline], the EC50 is 81 nM.

Take `Cc1ccc(-c2cnn(CC3CC3(C)C)c2)c(-c2ccc3cccnc3c2)n1` (centres unmarked) [Example 101, 7-(3-{1-[(2,2-dimethylcyclopropyl)methyl]-1H-pyrazol-4-yl}-6-methylpyridin-2-yl)quinoline]: the EC50 came out at 100 nM.

As for `COc1cc2ccc(-c3nc(C#N)ccc3-c3cnn(CC4CC4(C)C)c3)cc2nn1` (centres unmarked) [Example 102, 5-{1-[(2,2-dimethylcyclopropyl)methyl]-1H-pyrazol-4-yl}-6-(3-methoxycinnolin-7-yl)pyridine-2-carbonitrile], the EC50 came to 91 nM.

`CC1(C)CC1Cn1cc(-c2ccc(C#N)nc2-c2ccc3cccnc3c2)cn1` (centres unmarked) [Example 103, 5-{1-[(2,2-dimethylcyclopropyl)methyl]-1H-pyrazol-4-yl}-6-quinolin-7-ylpyridine-2-carbonitrile]: the EC50 came to 45 nM.

As to `COc1cc2ccc(-c3nc(C#N)ccc3-c3cnn(CC4(CC#N)CC4)c3)cc2nn1` [Example 104, 5-(1-{[1-(cyanomethyl)cyclopropyl]methyl}-1H-pyrazol-4-yl)-6-(3-methoxycinnolin-7-yl)pyridine-2-carbonitrile], the EC50 came to 154 nM.

For `N#CCC1(Cn2cc(-c3ccc(C#N)nc3-c3ccc4cccnc4c3)cn2)CC1` [Example 105, 5-(1-{[1-(cyanomethyl)cyclopropyl]methyl}-1H-pyrazol-4-yl)-6-quinolin-7-ylpyridine-2-carbonitrile], the EC50 came out at 120 nM.

In the case of `c1cnc(-c2ccc3cccnc3c2)c(-c2cnn(CC3CCCCC3)c2)c1` [Example 106, 7-{3-[1-(cyclohexylmethyl)-1H-pyrazol-4-yl]pyridin-2-yl}quinoline], the EC50 is 93 nM.

For the molecule `COc1cc2ccc(-c3nc(C)ccc3-c3cnn(CC4CCCCC4)c3)cc2nn1` [Example 107, 7-{3-[1-(cyclohexylmethyl)-1H-pyrazol-4-yl]-6-methylpyridin-2-yl}-3-methoxycinnoline], the EC50 is 16 nM.

Take `COc1cc2ccc(-c3nc(C)ccc3-c3cnn(C4CCC(F)(F)CC4)c3)cc2nn1` [Example 108, 7-{3-[1-(4,4-difluorocyclohexyl)-1H-pyrazol-4-yl]-6-methylpyridin-2-yl}-3-methoxycinnoline]: the EC50 worked out at 142 nM.

For `CC(C)(C)Cn1cc(-c2ccc(C(F)F)nc2-c2ccc3cccnc3c2)cn1` [Example 109, 7-{6-(difluoromethyl)-3-[1-(2,2-dimethylpropyl)-1H-pyrazol-4-yl]pyridin-2-yl}quinoline], the EC50 was determined as 48 nM.

Regarding `CC(C)Cn1cc(-c2ccc(C#N)nc2-c2ccc3cccnc3c2)cn1` [Example 110, 5-[1-(2-methylpropyl)-1H-pyrazol-4-yl]-6-quinolin-7-ylpyridine-2-carbonitrile], the EC50 is 129 nM.

Regarding `N#Cc1ccc(-c2cnn(CC3(F)CC3)c2)c(-c2ccc3cccnc3c2)n1` [Example 111, 5-{1-[(1-fluorocyclopropyl)methyl]-1H-pyrazol-4-yl}-6-quinolin-7-ylpyridine-2-carbonitrile], the EC50 is 110 nM.

For `COc1cc2ccc(-c3nc(C#N)ccc3-c3cnn(CC(F)(F)C(F)(F)F)c3)cc2nn1` [Example 112, 6-(3-methoxycinnolin-7-yl)-5-[1-(2,2,3,3,3-pentafluoropropyl)-1H-pyrazol-4-yl]pyridine-2-carbonitrile], the EC50 was 138 nM.

On to `CC(C)(CO)Cn1cc(-c2ccc(C#N)nc2-c2ccc3cccnc3c2)cn1` [Example 113, 5-[1-(3-hydroxy-2,2-dimethylpropyl)-1H-pyrazol-4-yl]-6-quinolin-7-ylpyridine-2-carbonitrile], for which the EC50 stood at 139 nM.

Regarding `COc1cc2ccc(-c3nc(C)ccc3-c3cnn(CC(C)(C)F)c3)cc2nn1` [Example 114, 7-{3-[1-(2-fluoro-2-methylpropyl)-1H-pyrazol-4-yl]-6-methylpyridin-2-yl}-3-methoxycinnoline], the EC50 came to 191 nM.

Regarding `COc1cc2ccc(-c3nc(C(F)F)ccc3-c3cnn(CC(C)(C)F)c3)cc2nn1` [Example 115, 7-{6-(difluoromethyl)-3-[1-(2-fluoro-2-methylpropyl)-1H-pyrazol-4-yl]pyridin-2-yl}-3-methoxycinnoline], the EC50 came to 190 nM.

As to `N#Cc1ccc(-c2cnn(CC3(F)CCC3)c2)c(-c2ccc3cccnc3c2)n1` [Example 116, 5-{1-[(1-fluorocyclobutyl)methyl]-1H-pyrazol-4-yl}-6-quinolin-7-ylpyridine-2-carbonitrile], the EC50 was 39 nM.

As for `CC(C)(O)C(F)(F)Cn1cc(-c2ccc(C#N)nc2-c2ccc3cccnc3c2)cn1` [Example 117, 5-[1-(2,2-difluoro-3-hydroxy-3-methylbutyl)-1H-pyrazol-4-yl]-6-quinolin-7-ylpyridine-2-carbonitrile], the EC50 came out at 104 nM.
